Earlier results in patent publication US20220378710A1, “Therapeutic Gas Microfoam for Skin Recovery” (Truly Oxygen, Inc., priority 2018, published 2022).

Settings: topical co-administration of lipids, mammals

C=C(C)[C@@H]1CCC(C)=C[C@H]1c1c(O)cc(CCCCC)cc1O [CBD, cannabidiol]
increase in absorption and/or bioavailability: ~3 fold

CCCCCc1cc(O)c2c(c1)OC(C)(C)[C@@H]1CCC(C)=C[C@@H]21 [THC, Δ^9-tetrahydrocannabinol]
increase in absorption and/or bioavailability: more than 2.5 fold
